Data from patent US5914237A, “Kinase receptor activation assay” (Genentech Incorporated, priority 1995, dated 1999).
Where two headings read alike, the source gives them in different places. Values belong to the molecule of their own block, whether it stands above or below them.

How the values were obtained:
[1] = tested on: p185^HER2 (HER2 receptor); assay: p185HER2 KIRA ELISA (receptor autophosphorylation in MCF-7 cells); format: cell-based, human; conditions: for receptor stimulation and autophosphorylation (assay specificity, FIG. 8): HRG up to 3000 pM, other ligands up to 30000 pM
Method: MCF-7 cells (2×10^5) in 100 μl media were added to each well in a flat-bottom-96 well culture plate and cultured overnight at 37° C. in 5% CO2. The following morning the well supernatants were decanted, and the plates were lightly tamped on a paper towel. 50 μl of media containing either experimental samples or the recombinant HRGβ1177-244 standards (3000, 1000, 333, 111, 37, 12, 4, and 0 pM) was then added to each well. The cells were stimulated at 37° C. for 30 min., the well supernatants were decanted, and the plates were once again lightly tamped on a paper towel. To lyse the cells and solubilize the receptors, 100 μl of lysis buffer was added to each well. Lysis buffer consisted of 150 mM NaCl containing 50 mM HEPES (Gibco), 0.5% Triton-X 100 (Gibco), 0.01% thimerosal, 30 KIU/ml aprotinin (ICN Biochemicals, Aurora, Ohio), 1 mM 4-(2-aminoethyl)-benzenesulfonyl fluoride hydrochloride (AEBSF; ICN Biochemicals), 50 μM leupeptin (ICN Biochemicals), and 2 mM sodium orthovanadate (Na3 VO4, Sigma Chemical Co, St. Louis, Mo.), pH 7.5. The plate was then agitated gently on a plate shaker (Bellco Instruments, Vineland, N.J.) for 60 min. at room temperature.
While the cells were being solubilized, an ELISA microtiter plate (Nunc Maxisorp, Inter Med, Denmark) coated overnight at 4° C. with the affinity-purified polyclonal anti-HER2 ECD (1.0 μg/ml in 50 mM carbonate buffer, pH 9.6, 100 μl/well) was decanted, tamped on a paper towel and blocked with 150 μl/well of Block Buffer [PBS containing 0.5% BSA (Intergen Company, Purchase, N.Y.) and 0.01% thimerosal] for 60 min. at room temperature with gentle agitation. After 60 minutes, the anti-HER2 ECD coated plate was washed 6 times with wash buffer (PBS containing 0.05% Tween-20 and 0.01% thimerosal) using an automated plate washer (ScanWasher 300, Skatron Instruments, Inc, Sterling, Va.).
The lysate containing solubilized p185^HER2 from the cell-culture microtiter well was transferred (85 μl/well) to anti-rHER2 ECD coated and blocked ELISA well and was incubated for 2 h at room temperature with gentle agitation. […] The absorbance at 450 nm was read with a reference wavelength of 650 nm (ABS450/650), using a vmax plate reader (Molecular Devices, Palo Alto, Calif.) controlled with a Macintosh Centris 650 (Apple Computers, Cupertino, Calif.) and DeltaSoft software (BioMetallics, Inc, Princeton, N.J.).
The standard curve shown in FIG. 7 was generated by stimulating MCF-7 cells with 3000, 1000, 333, 111, 37, 12, 4, or 0 pM HRGβ1177-244 and presented as pM HRGβ1177-244 vs. mean ABS450/650 ±sd using the DeltaSoft program. Sample concentrations were obtained by interpolation of their absorbance on the standard curve and are expressed in terms of pM HRGβ1177-244 activity.

trkA.IgG = assay: Competitive displacement binding with iodinated NGF to trkA.IgG; design: species or system human
Method: (§1) The media mentioned above (having the gD.trk.IgG) was used without further purification in binding assays to assess the effects of the presence of the gD flag polypeptide on neurotrophin binding to the gD.trk.IgG polypeptides. DNA encoding untagged trk.IgG polypeptide was run in parallel as a control. trk.IgG and gD tagged trk.IgG containing cell supernatants were prepared as described and used in competitive displacement assays with the appropriate iodinated neurotrophin. NGF is used as ligand for trkA, NT5 is used as ligand for trkB, and NT3 is used as a ligand for trkC.

trkC.IgG = assay: Competitive displacement binding with iodinated NT3 to trkC.IgG; design: species or system human
Method: as §1

trkB.IgG = assay: Competitive displacement binding with iodinated NT5 to trkB.IgG; design: species or system human
Method: as §1

Molecule: EGF: epidermal growth factor
OD450/650 ([1]; highest concentration tested (100 nM)): 0.239

Molecule: IGF-1: insulin-like growth factor-1
receptor stimulation and autophosphorylation (assay specificity, FIG. 8) [1]: Neither insulin-like growth factor-1 (IGF-1), vascular endothelial growth factor (VEGF) nor insulin have any detectable effect

IC50 (trkA.IgG; gD tagged trkA.IgG, read-out: IC50 with gD): 0.0688 ± 0.003 nM
IC50 (trkA.IgG; trkA.IgG, untagged, read-out: IC50 without gD): 0.0684 ± 0.0119 nM
Molecule: NGF: nerve growth factor prepared by recombinant techniques; ligand for trkA

IC50 (trkC.IgG; gD tagged trkC.IgG, read-out: IC50 with gD): 0.0302 ± 0.0007 nM
IC50 (trkC.IgG; trkC.IgG, untagged, read-out: IC50 without gD): 0.0311 ± 0.0011 nM
Molecule: NT3: neurotrophin 3 prepared by recombinant techniques; ligand for trkC

Molecule: VEGF
receptor stimulation and autophosphorylation (assay specificity, FIG. 8) [1]: Neither insulin-like growth factor-1 (IGF-1), vascular endothelial growth factor (VEGF) nor insulin have any detectable effect

Molecule: insulin: insulin
receptor stimulation and autophosphorylation (assay specificity, FIG. 8) [1]: Neither insulin-like growth factor-1 (IGF-1), vascular endothelial growth factor (VEGF) nor insulin have any detectable effect

IC50 (trkB.IgG; gD tagged trkB.IgG, read-out: IC50 with gD): 0.0121 ± 0.018 nM
IC50 (trkB.IgG; trkB.IgG, untagged, read-out: IC50 without gD): 0.0311 ± 0.0156 nM
B1: NT5: neurotrophin 5 prepared by recombinant techniques; ligand for trkB (protein, UniProt P34130 81-210, looked up)
Neurotrophin-4: GVSETAPASRRGELAVCDAVSGWVTDRRTAVDLRGREVEVLGEVPAAGGSPLRQYFFETRCKADNAEEGGPGAGGGGCRGVDRRHWVSECKAKQSYVRALTADAQGRVGWRWIRIDTACVCTLLSRTGRA
